Laboratory results reported in patent US8124764B2, “Fused heterocyclyc inhibitor compounds” (Gilead Sciences, Inc., priority 2008, dated 2012).

Assays:
HDAC 1 = HDAC 1 (Homo sapiens, UniProt Q13547); test: HDAC 1 inhibition assay with about 3 hours enzyme/compound preincubation (fluorophore/quencher peptide substrate); type: biochemical; settings: 3-hour preincubation of enzyme with compound; read-out: HDAC 1 inhibitory activity (IC50 [μM]) (3-hour preincubation)
Description: HDAC inhibitory activity of the compound of Example 1 was measured by two types of assays in which HDAC 1 was used as a target molecule. The first assay was carried out without preincubation after addition of the enzyme. The test compound was suspended in and titrated in dmso. It was then spotted into a 384-well test plate. The enzyme, HDAC 1, was diluted in assay buffer containing 25 mM Tris-HCl (pH 8.0), 137 mM NaCl, 2.7 mM KCl, and 0.01% Tween-20 and added to the pre-spotted compound. The peptide substrate containing a fluorophore/quencher pair was diluted in the same assay buffer and added to the compound/enzyme mix initiating the reaction. The reaction incubated at room temperature for about 45 minutes. A concentrated developer solution was diluted in the assay buffer, and added to the reaction. The reaction was incubated at room temperature for about 15 minutes and relative fluorescence was read on an instrument reader.
The second assay is similar to the first assay described above, except that preincubation is carried out for about 3 hours after the enzyme is introduced. The test compound was suspended in, and titrated in DMSO. It was then spotted into a 384-well test plate. The enzyme, HDAC 1, was diluted in the same assay buffer as used in the previous assay and added to the pre-spotted compound. The enzyme/compound mix was incubated at room temperature for about 3 hours. The peptide substrate containing a fluorophore/quencher pair was diluted in the assay buffer and added to the compound/enzyme mix initiating the reaction. The reaction incubated at room temperature for 45 minutes. A concentrated developer solution was diluted in the assay buffer, and added to the reaction. The reaction was incubated at room temperature for about 15 minutes and relative fluorescence was read on an instrument reader.

CDK2 = CDK2 (Homo sapiens, UniProt P24941); test: CDK2 inhibition; type: biochemical

Sequence of HDAC 1 (Q13547 whole entry, species assumed): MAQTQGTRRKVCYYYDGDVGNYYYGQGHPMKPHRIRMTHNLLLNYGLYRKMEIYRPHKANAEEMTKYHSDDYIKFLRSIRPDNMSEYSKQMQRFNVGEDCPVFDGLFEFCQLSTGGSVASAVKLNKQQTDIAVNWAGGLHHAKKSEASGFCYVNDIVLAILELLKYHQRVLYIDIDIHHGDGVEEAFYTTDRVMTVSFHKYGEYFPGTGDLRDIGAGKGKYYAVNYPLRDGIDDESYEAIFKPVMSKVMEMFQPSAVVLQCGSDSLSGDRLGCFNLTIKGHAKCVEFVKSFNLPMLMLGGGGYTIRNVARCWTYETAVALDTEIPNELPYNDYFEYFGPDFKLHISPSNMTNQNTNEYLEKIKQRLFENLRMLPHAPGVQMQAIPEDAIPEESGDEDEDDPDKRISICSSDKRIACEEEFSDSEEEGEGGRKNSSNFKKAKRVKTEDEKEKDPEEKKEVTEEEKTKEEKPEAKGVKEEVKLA

Compound	IC50 (HDAC 1) [µM]	IC50 (CDK2) [µM]
Cc1nc2ccccn2c1-c1ccnc(Nc2ccc(C(=O)Nc3ccccc3N)c(F)c2)n1 [Example 36, N-(2-Amino-phenyl)-2-fluoro-4-[4-(2-methyl-imidazo[1,2-a]pyridin-3-yl)-pyrimidin-2-ylamino]-benzamide]	> 10	0.11
Cc1nc2ccccn2c1-c1ccnc(Nc2ncc(C(=O)Nc3ccccc3N)s2)n1 [Example 63, N-(2-aminophenyl)-2-(4-(2-methylimidazo[1,2-a]pyridin-3-yl)pyrimidin-2-ylamino)thiazole-5-carboxamide]	0.224	3.53
Cc1nc2cnccn2c1-c1ccnc(Nc2ccc(C(=O)Nc3ccccc3N)cc2)n1 [Example 20, N-(2-Amino-phenyl)-4-[4-(2-methyl-imidazo[1,2-a]pyrazin-3-yl)-pyrimidin-2-ylamino]-benzamide]	0.165	0.9
Cc1nc2ccc(Br)cn2c1-c1ccnc(Nc2ccc(C(=O)Nc3ccccc3N)cc2)n1 [Example 47, N-(2-Amino-phenyl)-4-[4-(6-bromo-2-methyl-imidazo[1,2-a]pyridin-3-yl)-pyrimidin-2-ylamino]-benzamide]	> 10	0.14
Cc1nc2cc(C(=O)N3CCN(C)CC3)ccn2c1-c1ccnc(Nc2ccc(C(=O)Nc3ccccc3N)cc2)n1 [Example 27, N-(2-Amino-phenyl)-4-{4-[2-methyl-7-(4-methyl-piperazine-1-carbonyl)-imidazo[1,2-a]pyridin-3-yl]-pyrimidin-2-ylamino}-benzamide]	0.374	4.64
Nc1ccccc1NC(=O)c1ccc(Nc2nccc(-c3cnc4ccccn34)n2)cc1 [Example 6, N-(2-Amino-phenyl)-4-(4-imidazo[1,2-a]pyridin-3-yl-pyrimidin-2-ylamino)-benzamide]	0.197	0.084
Cc1nc2ccccn2c1-c1ccnc(Nc2ccc(C(=O)Nc3ccccc3N)cn2)n1 [Example 66, N-(2-aminophenyl)-6-(4-(2-methylimidazo[1,2-a]pyridin-3-yl)pyrimidin-2-ylamino)nicotinamide]	0.289	3.48
Cc1nc2cc(C#N)ccn2c1-c1ccnc(Nc2ccc(C(=O)Nc3ccccc3N)cc2)n1 [Example 24, N-(2-Amino-phenyl)-4-[4-(7-cyano-2-methyl-imidazo[1,2-a]pyridin-3-yl)-pyrimidin-2-ylamino]-benzamide]	0.18	0.5
Cc1nc2ccc(C(=O)NCCN3CCOCC3)cn2c1-c1ccnc(Nc2ccc(C(=O)Nc3ccccc3N)cc2)n1 [Example 40, 3-(2-(4-(2-aminophenylcarbamoyl)phenylamino)pyrimidin-4-yl)-2-methyl-N-(2-morpholinoethyl)imidazo[1,2-a]pyridine-6-carboxamide]	0.347	7.1
Cc1nc2ccccn2c1-c1ccnc(Nc2nc(C(=O)Nc3ccccc3N)cs2)n1 [Example 62, N-(2-aminophenyl)-2-(4-(2-methylimidazo[1,2-a]pyridin-3-yl)pyrimidin-2-ylamino)thiazole-4-carboxamide]	> 10	1.36
Cc1nc2cc(C(F)(F)F)ccn2c1-c1ccnc(Nc2ccc(C(=O)Nc3ccccc3N)cc2)n1 [Example 10, N-(2-Amino-phenyl)-4-[4-(2-methyl-7-trifluoromethyl-imidazo[1,2-a]pyridin-3-yl)-pyrimidin-2-ylamino]-benzamide]	> 10	0.084
Nc1ccccc1NC(=O)c1ccc(Nc2ncc(F)c(-c3cnc4ccccn34)n2)cc1 [Example 50, N-(2-Amino-phenyl)-4-(5-fluoro-4-imidazo[1,2-a]pyridin-3-yl-pyrimidin-2-ylamino)-benzamide]	> 20	0.06
Cc1nc2cc(NCCN(C)C)ccn2c1-c1ccnc(Nc2ccc(C(=O)Nc3ccccc3N)cc2)n1 [Example 32, N-(2-Amino-phenyl)-4-{4-[7-(2-dimethylamino-ethylamino)-2-methyl-imidazo[1,2-a]pyridin-3-yl]-pyrimidin-2-ylamino}-benzamide]	0.141	2.58
Cc1nc2c(F)cccn2c1-c1ccnc(Nc2ccc(C(=O)Nc3ccccc3N)cc2)n1 [Example 45, N-(2-Amino-phenyl)-4-[4-(8-fluoro-2-methyl-imidazo[1,2-a]pyridin-3-yl)-pyrimidin-2-ylamino]-benzamide]	0.178	0.35
Cc1nc2ccccn2c1-c1ccnc(Nc2cnc(C(=O)NO)cn2)n1 [Example 67, N-hydroxy-5-(4-(2-methylimidazo[1,2-a]pyridin-3-yl)pyrimidin-2-ylamino)pyrazine-2-carboxamide]	0.169	0.68

Compounds with a lower IC50 (HDAC 1), results first:

IC50 (HDAC 1) [µM]	IC50 (CDK2) [µM]	Compound
0.0818	0.18	O=C(NO)c1ccc(Nc2nccc(-c3c(C(F)(F)F)nc4ccccn34)n2)cc1 [Example 15, N-Hydroxy-4-[4-(2-trifluoromethyl-imidazo[1,2-a]pyridin-3-yl)-pyrimidin-2-ylamino]-benzamide]
0.0239	0.59	Cc1nc2cccnn2c1-c1ccnc(Nc2ccc(C(=O)Nc3ccccc3N)cc2)n1 [Example 18, N-(2-Amino-phenyl)-4-[4-(2-methyl-imidazo[1,2-b]pyridazin-3-yl)-pyrimidin-2-ylamino]-benzamide]
~0.09	0.06	COc1ccn2c(-c3ccnc(Nc4ccc(C(=O)Nc5ccccc5N)cc4)n3)c(C)nc2c1 [Example 14, N-(2-Amino-phenyl)-4-[4-(7-methoxy-2-methyl-imidazo[1,2-a]pyridin-3-yl)-pyrimidin-2-ylamino]-benzamide]
0.0392	0.037	Cc1nc2cc(C(F)(F)F)ccn2c1-c1ccnc(Nc2ccc(C(=O)NO)cc2)n1 [Example 9, N-Hydroxy-4-[4-(2-methyl-7-trifluoromethyl-imidazo[1,2-a]pyridin-3-yl)-pyrimidin-2-ylamino]-benzamide]
0.021	3.6	Cc1nc2ccccn2c1-c1ccnc(Nc2ccc(C(=O)NO)cc2)c1 [Example 53, N-Hydroxy-4-[4-(2-methyl-imidazo[1,2-a]pyridin-3-yl)-pyridin-2-ylamino]-benzamide]
0.067	0.044	Cc1nc2ccccn2c1-c1ccnc(Nc2ccc(C(=O)NO)cc2)n1 [Example 1, N-Hydroxy-4-(4-(2-methylimidazo[1,2-a]pyridin-3-yl)-pyrimidin-2-ylamino)-benzamide]
0.0206	> 40	Cc1nc2ccccn2c1-c1ccnc(Nc2cnc(C(=O)Nc3ccccc3N)cn2)n1 [Example 68, N-(2-aminophenyl)-5-(4-(2-methylimidazo[1,2-a]pyridin-3-yl)pyrimidin-2-ylamino)pyrazine-2-carboxamide]
0.02	0.0393	O=C(NO)c1ccc(Nc2nccc(-c3cnc4ccccn34)n2)cc1 [Example 5, N-Hydroxy-4-(4-imidazo[1,2-a]pyridin-3-yl-pyrimidin-2-ylamino)-benzamide]
0.073	0.87	Cc1nc2ccccn2c1-c1ccnc(Nc2ccc(C(=O)Nc3ccccc3N)cn2)c1 [Example 70, N-(2-aminophenyl)-6-(4-(2-methylimidazo[1,2-a]pyridin-3-yl)pyridin-2-ylamino)nicotinamide]
